US20090143279A1 (priority 2007, published 2009)
Where two headings read alike, the source gives them in different places.

Key:
[1] = test system: cytochrome c; type: cell-based, mouse; conditions: for cyt c (composite Z-score): normalized score vs mock-treated (DMSO) wells
[2] = test system: reactive oxygen species; type: cell-based, mouse; conditions: for ROS (composite Z-score): normalized score vs mock-treated (DMSO) wells
[3] = test system: mitochondrial membrane potential; type: cell-based, mouse; conditions: for ΔΨm (composite Z-score): normalized score vs mock-treated (DMSO) wells
[4] = test system: C2C12 myotubes; conditions: for Viability (composite Z-score): normalized score vs mock-treated (DMSO) wells
[5] = test system: cellular dehydrogenase activity; conditions: for MTT (composite Z-score): normalized score vs mock-treated (DMSO) wells
[6] = test system: mtOXPHOS transcripts; type: cell-based, mouse; conditions: for mitoOX (composite Z-score): normalized score vs mock-treated (DMSO) wells
[7] = test system: nuOXPHOS transcripts; type: cell-based, mouse; conditions: for nucOX (composite Z-score): normalized score vs mock-treated (DMSO) wells
[8] = test system: OXPHOS gene expression; type: cell-based, mouse; conditions: for GE-HTS (composite Z-score): normalized score vs mock-treated (DMSO) wells
[9] = composite Z-score vs DMSO, Conc 20 μM
[10] = Table 7, C2C12 myotubes, 48 h, composite Z-score
[11] = composite Z-score vs mock-treated (DMSO) wells, Conc 20 μM
[12] = composite Z-score vs mock-treated (DMSO) wells, concentration of each compound in μM
[13] = normalized composite Z-score vs mock-treated (DMSO) wells, Conc 20 μM
[14] = composite Z-score vs DMSO wells, Conc 20 μM
[15] = 20 μM, composite Z-score vs DMSO
[16] = 24.06 μM, composite Z-score vs DMSO

Structure (SMILES): COc1ccc(-c2c(O)c3c(OC)c4c(cc3oc2=O)OC(C)(C)CC4)cc1 [dihydrorobustic acid, reference compound]
- cyt c [1, 9]: 0.757
- ROS [2, 9]: −0.115
- ΔΨm [3, 9]: 0.000
- Viability [4, 9]: −0.721
- MTT [5, 9]: −0.780
- mitoOX [6, 9]: −0.701
- nucOX [7, 9]: −0.849
- GE-HTS [8, 9]: −0.836

Structure (SMILES): COc1cc2c(cc1OC)[C@@H]1C(=O)c3ccc4c(c3O[C@@H]1CO2)CC(C(C)C)O4 (stereo partly shown) [dihydrorotenone, reference compound]
- cyt c [1, 9]: −3.153
- ROS [2, 9]: −0.682
- ΔΨm [3, 9]: −0.314
- Viability [4, 9]: 0.390
- MTT [5, 9]: −4.020
- mitoOX [6, 9]: −1.732
- nucOX [7, 9]: −2.212
- GE-HTS [8, 9]: −2.179

Structure (SMILES): CC(=O)O[C@@H]1c2c(ccc3ccc(=O)oc23)OC(C)(C)[C@@H]1OC(=O)CC(C)C [dihydrosamidin, reference compound]
- cyt c (composite Z-score) ([1]; Conc 20 μM): 0.147
- ROS (composite Z-score) ([2]; Conc 20 μM): 4.794
- ΔΨm (composite Z-score) ([3]; Conc 20 μM): 0.199
- Viability (composite Z-score) ([4]; Conc 20 μM): 0.476
- MTT (composite Z-score) ([5]; Conc 20 μM): −0.826
- mitoOX (composite Z-score) ([6]; Conc 20 μM): 1.477
- mito-OXPHOS Z [6, 10]: 1.48
- nucOX (composite Z-score) ([7]; Conc 20 μM): 1.843
- nucOXPHOS Z [7, 10]: 1.84
- GE-HTS (composite Z-score) ([8]; Conc 20 μM): 1.854

Structure (SMILES): Cc1cc(=O)c2c(O)c3c(cc2o1)OC(C)(C)CC3 [dihydrospatheliachromene]
- cyt c [1, 11]: 0.068
- ROS [2, 11]: 1.483
- ΔΨm [3, 11]: −0.174
- Viability [4, 11]: −0.538
- MTT [5, 11]: −1.802
- mitoOX [6, 11]: −0.569
- nucOX [7, 11]: −0.620
- GE-HTS [8, 11]: −0.666

Structure (SMILES): CC(=O)[C@H]1CC[C@H]2[C@@H]3CCC4C[C@H](O)CC[C@]4(C)[C@H]3C[C@H](O)[C@]12C (stereo partly drawn) [dihydroxy (3alpha,12alpha)pregnan-20-one]
- cyt c [1, 11]: −0.685
- ROS [2, 11]: 0.206
- ΔΨm [3, 11]: −0.540
- Viability [4, 11]: −0.622
- MTT [5, 11]: −1.160
- mitoOX [6, 11]: −0.621
- nucOX [7, 11]: −0.972
- GE-HTS [8, 11]: −0.928

Structure (SMILES): COc1ccc(/C=C/C(=O)O)cc1OC [dimethylcaffeic acid]
- cyt c (composite Z-score) ([1]; Conc 20 μM): 0.804
- ROS (composite Z-score) ([2]; Conc 20 μM): −0.142
- ΔΨm (composite Z-score) ([3]; Conc 20 μM): −0.061
- Viability (composite Z-score) ([4]; Conc 20 μM): 0.147
- MTT (composite Z-score) ([5]; Conc 20 μM): −1.206
- mitoOX (composite Z-score) ([6]; Conc 20 μM): −0.885
- nucOX (composite Z-score) ([7]; Conc 20 μM): −0.838
- GE-HTS (composite Z-score) ([8]; Conc 20 μM): −0.924

Structure (SMILES): COc1ccc(-c2cc(=O)c3c(OC)cc(OC)c(-c4cc(-c5cc(=O)c6c(OC)cc(OC)cc6o5)ccc4OC)c3o2)cc1 [dioonflavone]
- cyt c [1, 12]: 0.605
- ROS [2, 12]: 0.650
- ΔΨm [3, 12]: 0.208
- Viability [4, 12]: −0.003
- MTT [5, 12]: −0.744
- mitoOX [6, 12]: −0.969
- nucOX [7, 12]: −0.204
- GE-HTS [8, 12]: −0.471

Structure (SMILES): C[C@@H]1CC[C@@]2(OC1)O[C@H]1C[C@H]3[C@@H]4CC=C5C[C@@H](O)CC[C@]5(C)[C@H]4CC[C@]3(C)[C@H]1[C@@H]2C [diosgenin]
- cyt c [1, 9]: −0.679
- ROS [2, 9]: 0.048
- ΔΨm [3, 9]: −0.353
- Viability [4, 9]: −0.044
- MTT [5, 9]: −1.597
- mitoOX [6, 9]: 0.146
- nucOX [7, 9]: −0.445
- GE-HTS [8, 9]: −0.245

Structure (SMILES): COc1ccc(-c2cc(=O)c3c(O)cc(O)cc3o2)cc1O [diosmetin]
- cyt c [1, 13]: −0.666
- ROS [2, 13]: −0.014
- ΔΨm [3, 13]: −2.701
- Viability [4, 13]: 0.174
- MTT [5, 13]: −1.922
- mitoOX [6, 13]: −0.134
- nucOX [7, 13]: −1.158
- GE-HTS [8, 13]: −0.892

Structure (SMILES): COc1ccc(-c2cc(=O)c3c(O)cc(O[C@@H]4O[C@H](CO[C@@H]5O[C@@H](C)[C@H](O)[C@@H](O)[C@H]5O)[C@@H](O)[C@H](O)[C@H]4O)cc3o2)cc1O [diosmin]
- cyt c [1, 14]: −0.433
- ROS [2, 14]: 0.321
- ΔΨm [3, 14]: −0.501
- Viability [4, 14]: −0.712
- MTT [5, 14]: −0.708
- mitoOX [6, 14]: −1.147
- nucOX [7, 14]: −1.150
- GE-HTS [8, 14]: −1.223

Structure (SMILES): CC(=O)Oc1ccccc1C(=O)Oc1ccccc1C(=O)O [diplosalsalate]
- cyt c (composite Z-score) ([1]; Conc 20 μM): 0.787
- ROS (composite Z-score) ([2]; Conc 20 μM): 0.306
- ΔΨm (composite Z-score) ([3]; Conc 20 μM): 0.008
- Viability (composite Z-score) ([4]; Conc 20 μM): −0.204
- MTT (composite Z-score) ([5]; Conc 20 μM): −0.860
- mitoOX (composite Z-score) ([6]; Conc 20 μM): −0.766
- nucOX (composite Z-score) ([7]; Conc 20 μM): −0.994
- GE-HTS (composite Z-score) ([8]; Conc 20 μM): −1.001

Structure (SMILES): CC[C@H](C)[C@H](N)C(=O)N1CCC[C@H]1C(=O)N[C@H](C(=O)O)[C@@H](C)CC [diprotin A]
- cyt c [1, 12]: −0.975
- ROS [2, 12]: 0.300
- ΔΨm [3, 12]: 0.357
- Viability [4, 12]: −0.788
- MTT [5, 12]: −1.068
- mitoOX [6, 12]: 0.490
- nucOX [7, 12]: −0.102
- GE-HTS [8, 12]: 0.099

Structure (SMILES): CC(=O)Oc1cccc(C(=O)O)c1OC(C)=O [dipyrocetyl]
- cyt c (composite Z-score) ([1]; Conc 20 μM): 0.865
- ROS (composite Z-score) ([2]; Conc 20 μM): 1.260
- ΔΨm (composite Z-score) ([3]; Conc 20 μM): −0.363
- Viability (composite Z-score) ([4]; Conc 20 μM): 0.452
- MTT (composite Z-score) ([5]; Conc 20 μM): −1.355
- mitoOX (composite Z-score) ([6]; Conc 20 μM): −0.341
- nucOX (composite Z-score) ([7]; Conc 20 μM): −0.242
- GE-HTS (composite Z-score) ([8]; Conc 20 μM): −0.311

Structure (SMILES): Cc1c(N(C)CS(=O)(=O)[O-])c(=O)n(-c2ccccc2)n1C.[Na+] [dipyrone]
- cyt c [1]: 0.356
- cyt c [1, 14]: 0.337
- ROS [2]: −0.683
- ROS [2, 14]: −1.148
- ΔΨm [3]: −0.738
- ΔΨm [3, 14]: −0.760
- Viability [4]: −0.607
- Viability [4, 14]: −0.809
- MTT [5]: −1.243
- MTT [5, 14]: −1.908
- mitoOX [6, 14]: −0.820
- nucOX [7, 14]: −0.930
- GE-HTS [8, 14]: −0.955

Structure (SMILES): NCCc1ccc(O)c(O)c1 [dopamine]
- cyt c [1]: 0.007
- ROS [2]: −0.046
- ΔΨm [3]: −0.849
- Viability [4]: −0.964
- MTT [5]: −0.754
- mitoOX [6]: −0.655
- nucOX [7]: −0.112
- GE-HTS [8]: −0.337

Structure (SMILES): COc1ccc2c(c1OC)OC[C@@H](c1ccc(OC)c(OC)c1OC)C2 [duartin, dimethyl ether]
- cyt c [1, 11]: −0.531
- ROS [2, 11]: 0.796
- ΔΨm [3, 11]: 0.556
- Viability [4, 11]: 1.330
- MTT [5, 11]: −0.975
- mitoOX [6, 11]: −0.571
- nucOX [7, 11]: −1.362
- GE-HTS [8, 11]: −1.156

Structure (SMILES): CCCCOc1ccc(C(=O)CCN2CCCCC2)cc1 [dyclonine]
- cyt c [1]: 0.597
- cyt c [1, 14]: 1.243
- ROS [2, 14]: 0.379
- ΔΨm [3, 14]: −1.085
- Viability [4, 14]: −0.640
- MTT [5, 14]: −0.882
- mitoOX [6, 14]: −1.117
- nucOX [7, 14]: −0.377
- GE-HTS [8, 14]: −0.690

Structure (SMILES): CC[N+](C)(C)c1cccc(O)c1 [edrophonium]
- cyt c [1, 15]: 1.045
- cyt c [1, 16]: 0.177
- ROS [2, 15]: 1.006
- ROS [2, 16]: 0.343
- ΔΨm [3, 15]: 0.391
- ΔΨm [3, 16]: −0.161
- Viability [4, 15]: −0.291
- Viability [4, 16]: 0.250
- MTT [5, 15]: −0.015
- MTT [5, 16]: 0.901
- mitoOX [6, 15]: −0.183
- mitoOX [6, 16]: −1.083
- nucOX [7, 15]: −1.001
- nucOX [7, 16]: −0.611
- GE-HTS [8, 15]: −0.806
- GE-HTS [8, 16]: −0.803
